In patent US10414811B2, “Protease-resistant lipidated GLP-1 analogs” (MEDIMMUNE LIMITED, priority 2015, dated 2019):
Read-outs that look alike come from different tables or passages of the source. Numbered stars: 1 amine (or outer) side, 2 acyl side, 3 side chain; on linkers, the order of the positions; unused ones are H or OH. Square brackets hold non-standard residues; d marks the D form. Side chains are listed from the residue outwards. Peptide text beside a SMILES is read from it. * marks the point of attachment. C18 diacid = O=C(O)CCCCCCCCCCCCCCCCC(=O)*; γGlu = O=C(O)[C@H](CCC(=O)[*:2])N[*:1]; Stearoyl = CCCCCCCCCCCCCCCCCC(=O)*; αMeF = C[C@](N)(Cc1ccccc1)C(=O)O; αMeK = C[C@](N)(CCCCN)C(=O)O; αMeS = C[C@](N)(CO)C(=O)O; AEEA = NCCOCCOCC(=O)O; Aib = CC(C)(N)C(=O)O

Tests used:
Type in all cases: cell-based
[1] = target: T1, human GLP-1 receptor (GLP-1R) (Homo sapiens, UniProt P43220); assay: cAMP assay, human GLP-1R cells
T1 construct: expressed in transfected cells
Outline: (§1)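 Peptide-stimulated cAMP measured by two-step HTRF after a 30 min room-temperature incubation with receptor-expressing cells (hGLP-1R, hGIPR at 1×10^5 cells/ml; hGCGR at 2×10^5 cells/ml). Duplicate dilutions; EC50 from 4-parameter logistic fit of % Delta F.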

[2] = target: T2, human glucagon receptor (GCGR) (Homo sapiens, UniProt P47871); assay: cAMP assay, human GCGR cells; conditions: cAMP assay
T2 construct: expressed in transfected cells
Outline: as §1

GLP-1R (INS1e assay) = target: T3, GLP-1R (INS1e assay) (Rattus norvegicus, UniProt P32301); assay: INS1e assay, cAMP activity at GLP-1R; conditions: mono-lipidated peptides
T3 construct: endogenous in cells; host or cells: INS-1E cells
T3 sequence (P32301 22-463): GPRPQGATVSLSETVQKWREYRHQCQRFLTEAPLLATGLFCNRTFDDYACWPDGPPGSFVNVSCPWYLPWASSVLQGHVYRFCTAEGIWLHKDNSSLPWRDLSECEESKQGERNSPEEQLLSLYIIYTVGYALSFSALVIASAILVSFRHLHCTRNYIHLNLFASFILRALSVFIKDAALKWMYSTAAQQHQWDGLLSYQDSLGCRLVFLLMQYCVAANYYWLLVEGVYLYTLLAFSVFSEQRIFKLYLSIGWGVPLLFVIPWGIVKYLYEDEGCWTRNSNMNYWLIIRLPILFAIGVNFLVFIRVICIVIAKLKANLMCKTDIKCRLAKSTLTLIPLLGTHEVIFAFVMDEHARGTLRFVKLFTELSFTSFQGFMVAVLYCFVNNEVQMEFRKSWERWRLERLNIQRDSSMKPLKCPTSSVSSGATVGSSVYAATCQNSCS
Outline: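 It pairs cAMP-d2 acceptor with anti-cAMP cryptate donor, both prepared 1/20 in conjugate/lysis buffer, applied as a two-step protocol.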

[3] = target: T4, human glucose-dependent insulinotropic peptide receptor (GIPR) (Homo sapiens, UniProt P48546); assay: cAMP assay, human GIPR cells; conditions: cAMP assay
T4 construct: expressed in transfected cells
T4 sequence (P48546 22-466): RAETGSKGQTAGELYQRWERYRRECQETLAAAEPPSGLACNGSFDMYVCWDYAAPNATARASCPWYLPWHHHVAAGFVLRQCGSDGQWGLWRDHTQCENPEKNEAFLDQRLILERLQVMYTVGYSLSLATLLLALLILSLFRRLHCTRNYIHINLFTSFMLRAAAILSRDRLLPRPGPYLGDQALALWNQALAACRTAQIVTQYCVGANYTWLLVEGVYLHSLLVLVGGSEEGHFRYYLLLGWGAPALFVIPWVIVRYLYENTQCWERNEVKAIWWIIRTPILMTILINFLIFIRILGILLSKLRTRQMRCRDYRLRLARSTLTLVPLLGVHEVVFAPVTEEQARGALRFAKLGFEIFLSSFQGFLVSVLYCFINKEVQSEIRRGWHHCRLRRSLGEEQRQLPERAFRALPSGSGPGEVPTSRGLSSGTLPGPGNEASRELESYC
Outline: as §1

[4] = cAMP assay, first determination (n1), read-out: Primary assay EC50 GLP-1R n1
[5] = cAMP assay, second determination (n2), read-out: Primary assay EC50 GLP-1R n2
[6] = mean of n1 and n2, read-out: Mean pM GLP-1R
[7] = first determination (n1), read-out: Primary assay EC50 Gluc-R (n1)
[8] = second determination (n2), read-out: Primary assay EC50 Gluc-R (n2)
[9] = replicate n1, read-out: INS1e assay EC50 GLP-1R n1
[10] = first determination (n1), read-out: Primary assay EC50 GIP-R (n1)
[11] = second determination (n2), read-out: Primary assay EC50 GIP-R (n2)
[12] = mean of n1 and n2, read-out: INS1e assay EC50 Mean pM GLP-1R
[13] = replicate n2, read-out: INS1e assay EC50 GLP-1R n2

T2 sequence (P47871 26-477): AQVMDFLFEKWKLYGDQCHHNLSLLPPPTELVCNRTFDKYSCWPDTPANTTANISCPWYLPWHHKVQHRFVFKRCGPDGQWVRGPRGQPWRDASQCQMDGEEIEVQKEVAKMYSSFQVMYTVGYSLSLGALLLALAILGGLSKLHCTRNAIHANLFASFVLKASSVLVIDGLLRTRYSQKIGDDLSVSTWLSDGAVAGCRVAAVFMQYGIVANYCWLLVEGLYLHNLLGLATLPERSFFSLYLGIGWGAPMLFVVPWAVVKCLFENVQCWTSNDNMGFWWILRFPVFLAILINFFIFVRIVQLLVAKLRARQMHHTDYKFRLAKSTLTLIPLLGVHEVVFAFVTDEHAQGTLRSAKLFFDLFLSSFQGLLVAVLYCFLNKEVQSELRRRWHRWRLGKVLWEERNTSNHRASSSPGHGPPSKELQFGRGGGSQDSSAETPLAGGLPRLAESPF
T1 sequence (P43220 24-463): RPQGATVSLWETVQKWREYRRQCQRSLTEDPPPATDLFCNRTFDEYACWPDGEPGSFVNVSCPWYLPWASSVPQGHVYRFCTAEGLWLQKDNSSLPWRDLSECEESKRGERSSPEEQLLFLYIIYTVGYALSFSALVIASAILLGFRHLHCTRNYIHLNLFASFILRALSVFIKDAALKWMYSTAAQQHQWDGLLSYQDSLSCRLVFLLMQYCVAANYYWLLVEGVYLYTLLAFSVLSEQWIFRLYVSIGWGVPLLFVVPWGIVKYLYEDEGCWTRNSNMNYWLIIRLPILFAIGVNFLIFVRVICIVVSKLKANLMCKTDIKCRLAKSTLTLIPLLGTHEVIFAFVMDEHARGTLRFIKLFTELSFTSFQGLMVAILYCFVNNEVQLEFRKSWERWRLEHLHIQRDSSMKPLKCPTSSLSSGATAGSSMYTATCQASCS

EC50 [1, 4]	EC50 [1, 5]	EC50 [1, 6]	EC50 [2, 7]	EC50 [2, 8]	EC50 (GLP-1R (INS1e assay); [9])	EC50 [3, 10]	EC50 [3, 11]	EC50 (GLP-1R (INS1e assay); [12])	EC50 (GLP-1R (INS1e assay); [13])	Structure (SMILES)
1.5 pM	2.5 pM	2 pM	≥ 26 nM	≥ 26 nM	21.4 pM	≥ 26 nM	≥ 26 nM			CCCCCCCCCCCCCCCCCC(=O)NCCOCCOCC(=O)NCCOCCOCC(=O)NCCOCCOCC(=O)NCCCC[C@H](NC(=O)[C@H](C)NC(=O)[C@H](C)NC(=O)[C@H](CCC(=O)O)NC(=O)CNC(=O)[C@H](CCC(=O)O)NC(=O)[C@H](CC(C)C)NC(=O)[C@](C)(Cc1ccccc1)NC(=O)[C@H](CO)NC(=O)[C@H](CO)NC(=O)[C@@H](NC(=O)[C@H](CC(=O)O)NC(=O)[C@H](CO)NC(=O)[C@@H](NC(=O)[C@](C)(Cc1ccccc1)NC(=O)[C@H](CO)NC(=O)CNC(=O)[C@H](CCC(=O)O)NC(=O)C(C)(C)NC(=O)[C@@H](N)Cc1c[nH]cn1)[C@@H](C)O)C(C)C)C(=O)N[C@@H](CCC(=O)O)C(=O)N[C@@](C)(Cc1ccccc1)C(=O)N[C@H](C(=O)N[C@@H](C)C(=O)N[C@@](C)(Cc1ccccc1)C(=O)N[C@H](C(=O)N[C@H](C(=O)N[C@@](C)(CCCCN)C(=O)NCC(=O)NCC(N)=O)C(C)C)C(C)C)[C@@H](C)CC [compound 52]
1.4 pM	2.3 pM	1.8 pM	≥ 25 nM	≥ 25 nM	12.5 pM	≥ 25 nM	≥ 25 nM	11 pM	10.1 pM	CCCCCCCCCCCCCCCCCC(=O)NCCOCCOCC(=O)NCCOCCOCC(=O)NCCOCCOCC(=O)NCCCC[C@H](NC(=O)[C@H](C)NC(=O)[C@H](C)NC(=O)[C@H](CCC(=O)O)NC(=O)CNC(=O)[C@H](CCC(=O)O)NC(=O)[C@H](CC(C)C)NC(=O)[C@](C)(Cc1ccccc1)NC(=O)[C@H](CO)NC(=O)[C@](C)(CO)NC(=O)[C@@H](NC(=O)[C@H](CC(=O)O)NC(=O)[C@H](CO)NC(=O)[C@@H](NC(=O)[C@](C)(Cc1ccccc1)NC(=O)[C@H](CO)NC(=O)CNC(=O)[C@H](CCC(=O)O)NC(=O)C(C)(C)NC(=O)[C@@H](N)Cc1c[nH]cn1)[C@@H](C)O)C(C)C)C(=O)N[C@@H](CCC(=O)O)C(=O)N[C@@](C)(Cc1ccccc1)C(=O)N[C@H](C(=O)N[C@@H](C)C(=O)N[C@@H](Cc1c[nH]c2ccccc12)C(=O)N[C@H](C(=O)N[C@H](C(=O)N[C@@](C)(CCCCN)C(=O)NCC(=O)NCC(N)=O)C(C)C)C(C)C)[C@@H](C)CC [compound 55] (H-H[Aib]EGS[αMeF]TSDV[αMeS]S[αMeF]LEGEAAK([AEEA-AEEA-AEEA-Stearoyl])E[αMeF]IAWVV[αMeK]GG-NH2)
19.7 pM	14 pM	16.9 pM	≥ 25.1 nM	≥ 25.1 nM	2570 pM	≥ 25.1 nM	≥ 25.1 nM	3160 pM	3740 pM	CC[C@H](C)[C@H](NC(=O)[C@H](Cc1ccccc1)NC(=O)[C@H](CCC(=O)O)NC(=O)[C@H](CCCCN)NC(=O)[C@H](C)NC(=O)[C@H](C)NC(=O)[C@H](CCC(=O)O)NC(=O)CNC(=O)[C@H](CCC(=O)O)NC(=O)[C@H](CC(C)C)NC(=O)[C@](C)(Cc1ccccc1)NC(=O)[C@H](CO)NC(=O)[C@](C)(CO)NC(=O)[C@@H](NC(=O)[C@H](CC(=O)O)NC(=O)[C@H](CO)NC(=O)[C@@H](NC(=O)[C@](C)(Cc1ccccc1)NC(=O)[C@H](CO)NC(=O)CNC(=O)[C@H](CCC(=O)O)NC(=O)C(C)(C)NC(=O)[C@@H](N)Cc1c[nH]cn1)[C@@H](C)O)C(C)C)C(=O)N[C@@H](CCCCNC(=O)COCCOCCNC(=O)COCCOCCNC(=O)CC[C@H](NC(=O)CCCCCCCCCCCCCCCCC(=O)O)C(=O)O)C(=O)N[C@@H](Cc1c[nH]c2ccccc12)C(=O)N[C@H](C(=O)N[C@H](C(=O)N[C@@H](CCC(=O)O)C(=O)NCC(=O)NCC(N)=O)C(C)C)C(C)C [compound 65] (H-H[Aib]EGS[αMeF]TSDV[αMeS]S[αMeF]LEGEAAKEFIK([AEEA-AEEA-γGlu-C18 diacid])WVVEGG-NH2)
203 pM	97.9 pM	150 pM	≥ 25.1 nM	≥ 25.1 nM	45600 pM	≥ 25.1 nM	≥ 25.1 nM	42200 pM	38800 pM	CC[C@H](C)[C@H](NC(=O)[C@H](Cc1ccccc1)NC(=O)[C@H](CCC(=O)O)NC(=O)[C@H](CCC(=O)O)NC(=O)[C@H](C)NC(=O)[C@H](C)NC(=O)[C@H](CCC(=O)O)NC(=O)CNC(=O)[C@H](CCC(=O)O)NC(=O)[C@H](CC(C)C)NC(=O)[C@](C)(Cc1ccccc1)NC(=O)[C@H](CO)NC(=O)[C@](C)(CO)NC(=O)[C@@H](NC(=O)[C@H](CC(=O)O)NC(=O)[C@H](CO)NC(=O)[C@@H](NC(=O)[C@](C)(Cc1ccccc1)NC(=O)[C@H](CO)NC(=O)CNC(=O)[C@H](CCC(=O)O)NC(=O)C(C)(C)NC(=O)[C@@H](N)Cc1c[nH]cn1)[C@@H](C)O)C(C)C)C(=O)N[C@@H](CCCCNC(=O)COCCOCCNC(=O)COCCOCCNC(=O)CC[C@H](NC(=O)CCCCCCCCCCCCCCCCC(=O)O)C(=O)O)C(=O)N[C@@H](Cc1c[nH]c2ccccc12)C(=O)N[C@H](C(=O)N[C@H](C(=O)N[C@@H](CCC(=O)O)C(=O)NCC(=O)NCC(N)=O)C(C)C)C(C)C [compound 66] (H-H[Aib]EGS[αMeF]TSDV[αMeS]S[αMeF]LEGEAAEEFIK([AEEA-AEEA-γGlu-C18 diacid])WVVEGG-NH2; N-terminus assumed)
72.1 pM	48 pM	60.1 pM	≥ 25.4 nM	≥ 25.4 nM	6150 pM	≥ 25.4 nM	≥ 25.4 nM	12100 pM	18100 pM	CC[C@H](C)[C@H](NC(=O)[C@H](Cc1ccccc1)NC(=O)[C@H](CCC(=O)O)NC(=O)C(C)(C)NC(=O)[C@H](C)NC(=O)[C@H](C)NC(=O)[C@H](CCC(=O)O)NC(=O)CNC(=O)[C@H](CCC(=O)O)NC(=O)[C@H](CC(C)C)NC(=O)[C@](C)(Cc1ccccc1)NC(=O)[C@H](CO)NC(=O)[C@](C)(CO)NC(=O)[C@@H](NC(=O)[C@H](CC(=O)O)NC(=O)[C@H](CO)NC(=O)[C@@H](NC(=O)[C@](C)(Cc1ccccc1)NC(=O)[C@H](CO)NC(=O)CNC(=O)[C@H](CCC(=O)O)NC(=O)C(C)(C)NC(=O)[C@@H](N)Cc1c[nH]cn1)[C@@H](C)O)C(C)C)C(=O)N[C@@H](CCCCNC(=O)COCCOCCNC(=O)COCCOCCNC(=O)CC[C@H](NC(=O)CCCCCCCCCCCCCCCCC(=O)O)C(=O)O)C(=O)N[C@@H](Cc1c[nH]c2ccccc12)C(=O)N[C@H](C(=O)N[C@H](C(=O)N[C@@H](CCC(=O)O)C(=O)NCC(=O)NCC(N)=O)C(C)C)C(C)C [compound 67] (H-H[Aib]EGS[αMeF]TSDV[αMeS]S[αMeF]LEGEAA[Aib]EFIK([AEEA-AEEA-γGlu-C18 diacid])WVVEGG-NH2; N-terminus assumed)
